Results reported in PMC5469811, “Identification of GXXXXG motif in Chrysophsin-1 and its implication in the design of analogs with cell-selective antimicrobial and anti-endotoxin activities” (Scientific Reports, 2017).
≈ marks a conversion by molar mass, not a printed value. Residues, ends and D or L forms follow the SMILES beside them.

Experiments:
[1] = tested on: Staphylococcus aureus (ATCC 29213); test: microbe, parasite or virus in culture; format: cell-based; settings: ATCC 29213; read-out: Minimum inhibitory concentration (MIC)
Protocol: (§1) Antibacterial assay against various Gram-positive and Gram-negative strains of bacteria was performed by the serial two-fold dilution method according to the previously reported procedure, [36]. The antibacterial assays were repeated thrice and the averages of these MIC values were reported.

[2] = tested on: Staphylococcus aureus (ATCC 33592) Methicillin resistant Genatmicin resistant; test: microbe, parasite or virus in culture; format: cell-based; settings: ATCC 33592; read-out: Minimum inhibitory concentration (MIC)
Protocol: as §1

[3] = tested on: Pseudomonas aeruginosa (ATCC BAA-427); test: microbe, parasite or virus in culture; format: cell-based; settings: ATCC BAA-427; read-out: Minimum inhibitory concentration (MIC)
Protocol: as §1

[4] = tested on: Escherichia coli (ATCC 9637); test: microbe, parasite or virus in culture; format: cell-based; settings: ATCC 9637; read-out: Minimum inhibitory concentration (MIC)
Protocol: as §1

[5] = tested on: Staphylococcus aureus (ATCC 700699 MRSA); test: microbe, parasite or virus in culture; format: cell-based; settings: ATCC 700699; read-out: Minimum inhibitory concentration (MIC)
Protocol: as §1

[6] = tested on: Escherichia coli (ATCC 25922); test: microbe, parasite or virus in culture; format: cell-based; settings: ATCC 25922; read-out: Minimum inhibitory concentration (MIC)
Protocol: as §1

[7] = tested on: Staphylococcus aureus (ATCC 700698 MRSA); test: microbe, parasite or virus in culture; format: cell-based; settings: ATCC 700698; read-out: Minimum inhibitory concentration (MIC)
Protocol: as §1

[8] = tested on: Staphylococcus aureus (ATCC 25923); test: microbe, parasite or virus in culture; format: cell-based; settings: ATCC 25923; read-out: Minimum inhibitory concentration (MIC)
Protocol: as §1

[9] = tested on: Klebsiella pneumoniae (ATCC 27736); test: microbe, parasite or virus in culture; format: cell-based; settings: ATCC 27736; read-out: Minimum inhibitory concentration (MIC)
Protocol: as §1

[10] = tested on: Bacillus subtilis (ATCC 6633); test: microbe, parasite or virus in culture; format: cell-based; settings: ATCC 6633; read-out: Minimum inhibitory concentration (MIC)
Protocol: as §1

[11] = tested on: Staphylococcus aureus (BAA-44)MDR; test: microbe, parasite or virus in culture; format: cell-based; settings: BAA-44; read-out: Minimum inhibitory concentration (MIC)
Protocol: as §1

E. coli ATCC 25922 [12] = test: Synergy with conventional antibiotics, checkerboard titration; format: cell-based, Escherichia coli
Protocol: The checkerboard titration method was followed to check the synergy of peptides with other antibiotics. First, 2-fold serial dilutions of the antibiotics and antimicrobial peptides were prepared. Subsequently, 50 μl each of different concentrations of antibiotics and of antimicrobial peptides was mixed and added into 100 μl of log phase bacteria culture in a 96-well plate. The plates were then incubated at 37 °C for 24 h. The fractional inhibitory concentration (FIC) index (FICI) was calculated as follows[39]: FICI=(MICofdrugAincombination)/(MICofdrugAalone)+(MICofdrugBincombination)/(MICofdrugB): FICI < 0.5 is considered to indicate synergy; 0.5 < FICI < 1.0 is considered additive; 1.0 < FICI < 4.0 is considered indifferent; and FICI > 4.0 is considered antagonism.

E. coli ATCC 25922 [13] = format: cell-based, Escherichia coli; settings: ATCC 25922, 18 h
Protocol: (§2) E. coli ATCC25922 was grown to 10^6 CFU/ml in fresh MH broth with various divalent and monovalent salts at their physiological concentrations. Serial dilutions of chrysophsin-1 and its variants prepared with the same MH broth were added to the E. coli ATCC 25922 suspensions. The bacteria were incubated at 37 °C in a shaking incubator for 18 h and the MIC values of individual peptides against E. coli ATCC 25922 were determined. Thermal tolerance of Chrysophsin-1 and its variants was checked by incubating the peptides at 4 °C, 60 °C and 90 °C for 1 h prior to MIC determination. The antibacterial activity in presence of serum was carried out by adding a final concentration of 10% fetal bovine serum in the assay diluents containing 0.4% BSA, 0.02% glacial acetic acid. The subsequent steps in both the experiments were consistent with the MIC determination method.

E. coli (ATCC 25922) = format: cell-based, Escherichia coli; settings: ATCC 25922, 1 h
Protocol: as §2

S. aureus (ATCC 25923) = format: cell-based, Staphylococcus aureus; settings: ATCC 25923, 1 h
Protocol: as §2

[14] = tested on: Candida albicans (ATCC 10231); test: microbe, parasite or virus in culture; format: cell-based; settings: ATCC 10231, 48 h; read-out: Minimum inhibitory concentration (MIC)
Protocol: (§3) The anti- fungal activity of peptides was performed according to the standard micro broth dilution technique as per NCCLS guidelines. These plates were incubated in a moist chamber at 35 °C, and an absorbance at 492 nm was recorded on a VersaMax microplate reader after 48 h for C. albicans ATCC 10231 and C. parapsilosis ATCC 22019 and 72 h for C. neoformans.

Cryptococcus neoformans = test: microbe, parasite or virus in culture; format: cell-based; settings: 72 h; read-out: Minimum inhibitory concentration (MIC)
Protocol: as §3

[15] = tested on: Candida parapsilosis (ATCC 22019); test: microbe, parasite or virus in culture; format: cell-based; settings: ATCC 22019, 48 h; read-out: Minimum inhibitory concentration (MIC)
Protocol: as §3

[16] = tested on: Sporothrix schenckii (Patient isolates); test: microbe, parasite or virus in culture; format: cell-based; settings: 48 h; read-out: Minimum inhibitory concentration (MIC)

MIC [1]: 3 µM (≈ 8.91 µg/mL)
MIC [2]: 1.6 µM (≈ 4.75 µg/mL)
MIC [3]: 13.6 µM (≈ 40.4 µg/mL)
MIC [4]: 6.8 µM (≈ 20.2 µg/mL)
MIC [5]: 3 µM (≈ 8.91 µg/mL)
MIC [6]: 4 µM (≈ 11.9 µg/mL)
MIC [7]: 3 µM (≈ 8.91 µg/mL)
MIC [8]: 3 µM (≈ 8.91 µg/mL)
MIC [9]: 27.2 µM (≈ 80.8 µg/mL)
MIC [10]: 3 µM (≈ 8.91 µg/mL)
MIC [11]: 3 µM (≈ 8.91 µg/mL)
Antibacterial activity (MIC) in the presence of 10% FBS (E. coli ATCC 25922 [13]): >33 µM
Antibacterial activity (MIC) in the presence of FeCl3 (E. coli ATCC 25922 [13]): 26 µM
Antibacterial activity (MIC) in the presence of KCl (E. coli ATCC 25922 [13]): 6 µM
Antibacterial activity (MIC) in the presence of MgCl2 (E. coli ATCC 25922 [13]): 20 µM
Antibacterial activity (MIC) in the presence of NH4Cl (E. coli ATCC 25922 [13]): 5 µM
Antibacterial activity (MIC) in the presence of NaCl (E. coli ATCC 25922 [13]): 20 µM
Antibacterial activity (MIC) in the presence of ZnCl2 (E. coli ATCC 25922 [13]): 12 µM
Antibacterial activity (MIC) after incubating peptide at 4 °C (E. coli (ATCC 25922)): 4 µM
Antibacterial activity (MIC) after incubating peptide at 60 °C (E. coli (ATCC 25922)): 14 µM
Antibacterial activity (MIC) after incubating peptide at 90 °C (E. coli (ATCC 25922)): 17.2 µM
Antibacterial activity (MIC) after incubating peptide at 4 °C (S. aureus (ATCC 25923)): 3 µM
Antibacterial activity (MIC) after incubating peptide at 60 °C (S. aureus (ATCC 25923)): >33 µM
Antibacterial activity (MIC) after incubating peptide at 90 °C (S. aureus (ATCC 25923)): >33 µM
MIC [14]: >30 µM
MIC (Cryptococcus neoformans): >30 µM
MIC [15]: >30 µM
MIC [16]: >30 µM
Structure (SMILES): CC[C@H](C)[C@H](NC(=O)[C@H](C)NC(=O)CNC(=O)[C@H](CCCCN)NC(=O)[C@@H](NC(=O)[C@H](CC(C)C)NC(=O)[C@H](Cc1c[nH]c2ccccc12)NC(=O)CNC(=O)[C@H](Cc1ccccc1)NC(=O)[C@@H](N)Cc1ccccc1)[C@@H](C)CC)C(=O)N[C@@H](Cc1c[nH]cn1)C(=O)N[C@@H](C)C(=O)N1CCC[C@H]1C(=O)N[C@@H](CCCCN)C(=O)N[C@@H](C)C(=O)N[C@H](C(=O)N[C@@H](Cc1c[nH]cn1)C(=O)N1CCC[C@H]1C(=O)N[C@@H](CC(C)C)C(=O)N[C@H](C(=O)N[C@@H](Cc1c[nH]cn1)C(=O)N[C@@H](CCCNC(=N)N)C(=O)N[C@@H](CCCNC(=N)N)C(=O)N[C@@H](CCCNC(=N)N)C(=O)N[C@@H](Cc1c[nH]cn1)C(N)=O)[C@@H](C)CC)[C@@H](C)CC [G13,18P-Chr-1] (H-FFGWLIKGAIHAPKAIHPLIHRRRH-NH2; N-terminus and C-terminus assumed)
interaction of peptide with chloramphenicol (by FICI) (E. coli ATCC 25922 [12]): additivity
